Results from patent US20100055168A1, “CATIONIC LIPIDS AND USES THEREOF” (ABBOTT LABORATORIES, priority 2008, published 2010).

Experiments:
[1] = Particle sizing assay of in vitro formulations (dynamic light scattering, DynaPro plate reader); assay type: physicochemical; conditions: Lipid:siRNA 25:1
Protocol: (§1) The siRNA concentrations were measured using Quanti-iT RiboGreen RNA reagent (Molecular Probes, (R11490)). Vesicle sizes were characterized by dynamic light scattering with a DynaPro™ Plate Reader (Wyatt Technology) in 96-well half-area UV plate (Coring) after diluting the formulation sample (20 μL) in phosphate buffered saline (80 μL) at a pH of about 7-8. A 1% agarose gel-based assay was used for analyzing nuclease degradation and protection. Encapsulation efficiency (EE) was calculated using data obtained from a RiboGreen assay.
Particle sizes and size distributions (PDI) were characterized by using dynamic light scattering (DLS). A DLS plate reader (Dynapro™, Wyatt Technology) was used for the DLS measurement. This DLS plate reader uses an 830 nm laser and the scattering angle is 158°. It also can control temperature from 4° C. to 70° C. A 96-well format was employed for the samples.
Samples for DLS analysis were prepared by mixing 20 μL of each sample stock solution with 80 μL PBS directly in the 96-well plate (#3697, Coming). Sample mixing was accomplished using a microplate shaker (Orbis, Mikura Ltd.). Plates were read at 20° C. with an acquisition time of 50 seconds for each sample, and data was analyzed with Wyatt Technology's Dynamics V6 software. To rule out potential multiple scattering artifacts, a second plate at […] reduced sample concentrations was independently prepared by mixing 5 μL stock solutions with 95 μL PBS. Under our experimental conditions the results at the two concentrations were very similar, and the final reported result for each sample represents the average of values obtained from the two plates.

[2] = Ribogreen assay for siRNA encapsulation efficiency of Lipid-Based Particles; assay type: physicochemical; conditions: Lipid:siRNA 25:1
Protocol: The mixing solution of cationic lipids, cholesterol, non-cationic lipids and PEG-lipids was prepared in ethanol (total concentration at 10 mg/mL). siSTABLE (purchased from ThermoFisher) (sense-5′ GGGGAAAGCUGGCAAGAUUUU-3′ SEQ ID NO: 1) antisense-5′-AAUCUUGCCAGCUUUCCCCUU-3′ SEQ ID NO: 2) % stock solution was prepared in 10 mg/mL of solution by dissolving 10 mg siRNA in 1 mL of RNAse-free UltraPure Water. The calculated amount of siRNA solution was added to 1 mL of citrate buffer (pH 4.0, 20 mM), to provide an siRNA concentration of 0.2 mg/mL, and warmed to 60° C. The calculated amount of lipid solution was warmed to 60° C., transferred to a 0.5 mL syringe with 28½ gauge needle, and injected into the citrate buffer with stirring at 60° C. After 3 minutes, 3 mL of PBS solution at room temperature (pH 7.4) was added into the lipid mixture with stirring. The Lipid-Based Particle solution was cooled to room temperature.
as §1
RNA concentration and encapsulation efficiency were determined using a Quant-iT® Ribogreen RNA reagent and kit available from Invitrogen. The siRNA was released from the Lipid-Based Particle using one of the following reagents: ethanol, Triton X-100, or phenol/chloroform. The siRNA concentration is quantified using fluorescent reading at 480 nm/520 nm.
A round bottom flask was submerged into a 65° C. water bath. Citrate buffer (37.5 ml) of pH 4.0 was pipetted into the flask. The solution was stirred by a magnetic stirring bar at a speed of 900 rpm. Both the pH 4.0 citrate buffer and the lipid solution were pre-warmed in the 65° C. water bath for about 3 minutes. A siRNA solution (0.5 ml) was pipetted into the pH 4.0 citrate buffer. The 12.5 ml lipid mixture solution was injected through a 27 gauge needle into the citrate buffer in about 30 seconds. The needle tip was inserted into the solution during the injection. The resulting solution was stirred for 5 minutes at a speed of 900 rpm. The flask was pulled up from the water bath and a 50 ml pH 7.4 PBS buffer was added into the flask. The final solution was further mixed at a speed of 900 rpm for 5 minutes. For the diafiltration process, a dialysis filter (Millipore, 100K, Cat #PXB100C50) was used to remove ethanol in the above solution. When the volume was reduced to 20 ml during the initial diafiltration, 20 ml of pH 7.4 PBS was added to the sample solution. The diafiltration was continued until the volume was reduced to 20 ml. The diafiltration process was repeated 4 times. The volume of the sample solution was reduced to about 12 ml and pH 7.4 PBS was added to make the final volume of 15 ml. The 15 ml solution was filtered sequentially through the 0.45 and 0.22 μm sterile PVDF membrane filters (Millipore) and immediately transferred into a sterile vial.

[3] = in vitro formulation a: Cationic lipid/Example 56/DSPC/Chol 45/10/15/30 wt %
[4] = in vitro formulation b: Cationic lipid/PEG-Chol/DSPC/Chol 45/10/15/30 wt %

Structure (SMILES)	Size [1, 3]	% Encapsulation Efficiency [2, 3]	% Encapsulation Efficiency [2, 4]	also measured
CCCCC/C=C\C/C=C\CCCCCCCCOCC(COCCCCCCCC/C=C\C/C=C\CCCCC)N(C)C [Example 2, N,N-dimethyl-N-(2-((9Z,12Z)-octadeca-9,12-dienyloxy)-1-(((9Z,12Z)-octadeca-9,12-dienyloxy)methyl)ethyl)amine]	134 nm			
CCCCC/C=C\C/C=C\CCCCCCCCOCC(COCCCCCCCC/C=C\C/C=C\CCCCC)N1CCN(CCn2ccnc2)CC1 [Example 19, 1-(2-(1H-imidazol-1-yl)ethyl)-4-(2-((9Z,12Z)-octadeca-9,12-dienyloxy)-1-(((9Z,12Z)-octadeca-9,12-dienyloxy)methyl)ethyl)piperazine]	118 nm	97.0%		
CCCCC/C=C\C/C=C\CCCCCCCCOCC(COCCCCCCCC/C=C\C/C=C\CCCCC)NCc1cccc(CN2CCCC2)c1 [Example 13, N-(2-((9Z,12Z)-octadeca-9,12-dienyloxy)-1-(((9Z,12Z)-octadeca-9,12-dienyloxy)methyl)ethyl)-N-(3-(pyrrolidin-1-ylmethyl)benzyl)amine]	146 nm	97.1%		
CCCCC/C=C\C/C=C\CCCCCCCCOCC(COCCCCCCCC/C=C\C/C=C\CCCCC)N1CCOCC1 [Example 5, 4-(2-((9Z,12Z)-octadeca-9,12-dienyloxy)-1-(((9Z,12Z)-octadeca-9,12-dienyloxy)methyl)ethyl)morpholine]	143 nm			PDI (size distribution) [1, 3]: 0.14
CCCCC/C=C\C/C=C\CCCCCCCC(=O)OCC(COC(=O)CCCCCCC/C=C\C/C=C\CCCCC)NCCCN1CCCC1 [Example 22, (9Z,9′Z,12Z,12′Z)-2-(3-(pyrrolidin-1-yl)propylamino)propane-1,3-diyl dioctadeca-9,12-dienoate]	120.8 nm	88.4%		
CCCCC/C=C\C/C=C\CCCCCCCCOCC(COCCCCCCCC/C=C\C/C=C\CCCCC)CN1CCCC1 [Example 24, 1-(3-((9Z,12Z)-octadeca-9,12-dienyloxy)-2-(((9Z,12Z)-octadeca-9,12-dienyloxy)methyl)propyl)pyrrolidine]			91.7%	
CCCCC/C=C\C/C=C\CCCCCCCCOCC(COCCCCCCCC/C=C\C/C=C\CCCCC)N1CCCC1 [Example 1, 1-(2-((9Z,12Z)-octadeca-9,12-dienyloxy)-1-(((9Z,12Z)-octadeca-9,12-dienyloxy)methyl)ethyl)pyrrolidine]	170 nm			PDI (size distribution) [1, 3]: 0.20
CCCCC/C=C\C/C=C\CCCCCCCCOCC(COCCCCCCCC/C=C\C/C=C\CCCCC)N(C)CC1CCN(C)CC1 [Example 16, N-methyl-N-((1-methylpiperidin-4-yl)methyl)-N-(2-((9Z,12Z)-octadeca-9,12-dienyloxy)-1-(((9Z,12Z)-octadeca-9,12-dienyloxy)methyl)ethyl)amine]			93.1%	Size [1, 4]: 130 nm
CCCCC/C=C\C/C=C\CCCCCCCCOCC(COCCCCCCCC/C=C\C/C=C\CCCCC)CN(C)C [Example 27, N,N-dimethyl-N-(3-[(9Z,12Z)-octadeca-9,12-dienyloxy]-2-{[(9Z,12Z)-octadeca-9,12-dienyloxy]methyl}propyl)amine]			71.9%	
CCCCC/C=C\C/C=C\CCCCCCCCOCC(COCCCCCCCC/C=C\C/C=C\CCCCC)NCc1cccnc1N1CCCC1 [Example 20, N-(2-((9Z,12Z)-octadeca-9,12-dienyloxy)-1-(((9Z,12Z)-octadeca-9,12-dienyloxy)methyl)ethyl)-N-((2-pyrrolidin-1-ylpyridin-3-yl)methyl)amine]	134 nm	55.9%		
CCCCC/C=C\C/C=C\CCCCCCCCOCC(N)COCCCCCCCC/C=C\C/C=C\CCCCC [Example 11, 1,3-bis((9Z,12Z)-octadeca-9,12-dienyloxy)propan-2-amine]	132 nm	96.0%		
CCCCC/C=C\C/C=C\CCCCCCCCOCC(COCCCCCCCC/C=C\C/C=C\CCCCC)NCC1CCN(C)CC1 [Example 12, N-((1-methylpiperidin-4-yl)methyl)-N-(2-((9Z,12Z)-octadeca-9,12-dienyloxy)-1-(((9Z,12Z)-octadeca-9,12-dienyloxy)methyl)ethyl)amine]			84.9%	Size [1, 4]: 119.8 nm
CCCCC/C=C\C/C=C\CCCCCCCCOCC(COCCCCCCCC/C=C\C/C=C\CCCCC)N(C)Cc1cccc(CN2CCCC2)c1 [Example 18, N-methyl-N-(2-((9Z,12Z)-octadeca-9,12-dienyloxy)-1-(((9Z,12Z)-octadeca-9,12-dienyloxy)methyl)ethyl)-N-(3-(pyrrolidin-1-ylmethyl)benzyl)amine]	122 nm	96.7%		
CCCCC/C=C\C/C=C\CCCCCCCCOCC(COCCCCCCCC/C=C\C/C=C\CCCCC)COC(=O)NCCN(C)C [Example 30, 3-[(9Z,12Z)-octadeca-9,12-dienyloxy]-2-{[(9Z,12Z)-octadeca-9,12-dienyloxy]methyl}propyl 2-(dimethylamino)ethylcarbamate]			95.0%	
CCCCC/C=C\C/C=C\CCCCCCCCOCC(COCCCCCCCC/C=C\C/C=C\CCCCC)COC(=O)NCCN1CCCC1 [Example 29, 3-[(9Z,12Z)-octadeca-9,12-dienyloxy]-2-{[(9Z,12Z)-octadeca-9,12-dienyloxy]methyl}propyl 2-pyrrolidin-1-ylethylcarbamate]			95.0%	
CCCCC/C=C\C/C=C\CCCCCCCCOCC(COCCCCCCCC/C=C\C/C=C\CCCCC)N(C)CCCN(C)C [Example 17, N,N,N′-trimethyl-N′-(2-((9Z,12Z)-octadeca-9,12-dienyloxy)-1-(((9Z,12Z)-octadeca-9,12-dienyloxy)methyl)ethyl)propane-1,3-diamine]			87.1%	Size [1, 4]: 121.8 nm
CCCCC/C=C\C/C=C\CCCCCCCCOCC(COCCCCCCCC/C=C\C/C=C\CCCCC)NCCCNCCCCNCCCN [Example 25, N-(3-aminopropyl)-N′-{3-[(2-[(9Z,12Z)-octadeca-9,12-dienyloxy]-1-{[(9Z,12Z)-octadeca-9,12-dienyloxy]methyl}ethyl)amino]propyl}butane-1,4-diamine]			92.3%	
CCCCC/C=C\C/C=C\CCCCCCCCOCC(COCCCCCCCC/C=C\C/C=C\CCCCC)COC(=O)NCCN(CC)CC [Example 28, 3-[(9Z,12Z)-octadeca-9,12-dienyloxy]-2-{[(9Z,12Z)-octadeca-9,12-dienyloxy]methyl}propyl 2-(diethylamino)ethylcarbamate]			93.0%	
CCCCC/C=C\C/C=C\CCCCCCCCOCC(CNCCCN1CCCC1)COCCCCCCCC/C=C\C/C=C\CCCCC [Example 26, N-(3-[(9Z,12Z)-octadeca-9,12-dienyloxy]-2-{[(9Z,12Z)-octadeca-9,12-dienyloxy]methyl}propyl)-N-(3-pyrrolidin-1-ylpropyl)amine]			99.9%	
